Data reported in patent US9446039B2, “Aminoheteroaryl compounds as MTH1 inhibitors” (CEMM—FORSCHUNGSZENTRUM FÜR MOLEKULARE MEDIZIN GMBH, priority 2012, dated 2016).

Tests used:
Type in all cases: binding
[1] = molecular target: SW480 colon carcinoma cells lysate proteins (Homo sapiens, UniProt P68371); conditions: PreyGene TUBB4B; SW480 cells
[2] = molecular target: SW480 colon carcinoma cells lysate proteins (Homo sapiens, UniProt P49327); conditions: PreyGene FASN
[3] = molecular target: T1, SW480 colon carcinoma cells lysate proteins (Homo sapiens, UniProt P32119); conditions: PreyGene PRDX2
T1 sequence (P32119 1-198): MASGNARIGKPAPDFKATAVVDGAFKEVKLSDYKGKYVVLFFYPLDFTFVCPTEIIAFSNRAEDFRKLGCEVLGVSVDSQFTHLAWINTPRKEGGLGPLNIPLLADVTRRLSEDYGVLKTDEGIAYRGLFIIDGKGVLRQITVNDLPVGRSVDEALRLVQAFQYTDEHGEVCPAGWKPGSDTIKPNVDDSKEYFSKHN

[4] = molecular target: T2, SW480 colon carcinoma cells lysate proteins (Homo sapiens, UniProt P41250); conditions: PreyGene GARS
T2 sequence (P41250 37-739): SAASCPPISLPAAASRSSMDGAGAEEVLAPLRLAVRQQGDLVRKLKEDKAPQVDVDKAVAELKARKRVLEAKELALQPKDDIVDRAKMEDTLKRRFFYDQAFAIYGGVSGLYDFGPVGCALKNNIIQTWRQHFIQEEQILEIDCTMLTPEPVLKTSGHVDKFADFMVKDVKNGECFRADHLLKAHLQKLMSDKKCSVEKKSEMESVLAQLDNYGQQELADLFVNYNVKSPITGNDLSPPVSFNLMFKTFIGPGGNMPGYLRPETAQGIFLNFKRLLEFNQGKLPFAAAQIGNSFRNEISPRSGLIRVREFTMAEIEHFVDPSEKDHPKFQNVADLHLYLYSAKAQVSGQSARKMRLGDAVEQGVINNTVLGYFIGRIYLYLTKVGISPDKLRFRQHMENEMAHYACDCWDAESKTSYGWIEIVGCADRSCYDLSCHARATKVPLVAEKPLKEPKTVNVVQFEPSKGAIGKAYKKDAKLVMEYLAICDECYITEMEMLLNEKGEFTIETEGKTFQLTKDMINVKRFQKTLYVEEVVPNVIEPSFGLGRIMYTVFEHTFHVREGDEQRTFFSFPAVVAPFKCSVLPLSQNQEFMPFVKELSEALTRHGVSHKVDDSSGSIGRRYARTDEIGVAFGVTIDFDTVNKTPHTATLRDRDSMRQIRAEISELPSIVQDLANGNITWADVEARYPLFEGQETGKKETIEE

[5] = molecular target: SW480 colon carcinoma cells lysate proteins (Homo sapiens, UniProt Q562R1); conditions: PreyGene ACTBL2; SW480 cells
Chain of SW480 colon carcinoma cells lysate proteins (Homo sapiens, UniProt Q562R1) (Q562R1 whole entry): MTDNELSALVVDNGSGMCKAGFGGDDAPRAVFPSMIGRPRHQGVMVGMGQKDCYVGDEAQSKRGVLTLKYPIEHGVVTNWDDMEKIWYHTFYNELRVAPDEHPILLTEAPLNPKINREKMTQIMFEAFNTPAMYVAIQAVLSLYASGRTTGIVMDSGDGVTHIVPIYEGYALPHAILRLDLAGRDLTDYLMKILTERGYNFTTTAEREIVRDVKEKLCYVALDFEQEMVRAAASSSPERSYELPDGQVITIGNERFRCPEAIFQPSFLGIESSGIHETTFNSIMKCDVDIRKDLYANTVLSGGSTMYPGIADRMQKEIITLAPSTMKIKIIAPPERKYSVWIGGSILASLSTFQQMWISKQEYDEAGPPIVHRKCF

[6] = molecular target: T3, SW480 colon carcinoma cells lysate proteins (Homo sapiens, UniProt Q14019); conditions: PreyGene COTL1
T3 sequence (Q14019 1-142): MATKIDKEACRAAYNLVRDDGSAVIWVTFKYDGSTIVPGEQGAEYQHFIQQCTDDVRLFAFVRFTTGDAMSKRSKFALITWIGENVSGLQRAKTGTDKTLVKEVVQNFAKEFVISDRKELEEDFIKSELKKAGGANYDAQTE

[7] = molecular target: SW480 colon carcinoma cells lysate proteins (Homo sapiens, UniProt P26038); conditions: PreyGene MSN
Chain of SW480 colon carcinoma cells lysate proteins (Homo sapiens, UniProt P26038) (P26038 whole entry): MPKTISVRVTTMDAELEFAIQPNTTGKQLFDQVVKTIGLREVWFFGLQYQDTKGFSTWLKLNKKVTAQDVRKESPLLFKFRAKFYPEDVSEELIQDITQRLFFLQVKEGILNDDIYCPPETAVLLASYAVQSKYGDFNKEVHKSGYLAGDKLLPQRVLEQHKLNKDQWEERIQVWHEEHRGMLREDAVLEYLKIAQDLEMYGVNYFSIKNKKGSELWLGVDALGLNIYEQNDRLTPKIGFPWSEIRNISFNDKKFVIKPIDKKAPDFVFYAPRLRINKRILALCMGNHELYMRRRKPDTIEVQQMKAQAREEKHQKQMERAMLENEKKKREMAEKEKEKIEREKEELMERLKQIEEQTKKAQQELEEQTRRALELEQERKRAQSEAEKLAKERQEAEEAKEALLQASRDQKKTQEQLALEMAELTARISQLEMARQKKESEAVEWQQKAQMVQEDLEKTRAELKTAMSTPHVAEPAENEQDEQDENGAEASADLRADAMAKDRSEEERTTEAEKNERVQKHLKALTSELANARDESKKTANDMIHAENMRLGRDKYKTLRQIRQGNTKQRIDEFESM

[8] = molecular target: T4, SW480 colon carcinoma cells lysate proteins (Homo sapiens, UniProt Q9UJZ1); conditions: PreyGene STOML2; SW480 cells
T4 sequence (Q9UJZ1 29-356): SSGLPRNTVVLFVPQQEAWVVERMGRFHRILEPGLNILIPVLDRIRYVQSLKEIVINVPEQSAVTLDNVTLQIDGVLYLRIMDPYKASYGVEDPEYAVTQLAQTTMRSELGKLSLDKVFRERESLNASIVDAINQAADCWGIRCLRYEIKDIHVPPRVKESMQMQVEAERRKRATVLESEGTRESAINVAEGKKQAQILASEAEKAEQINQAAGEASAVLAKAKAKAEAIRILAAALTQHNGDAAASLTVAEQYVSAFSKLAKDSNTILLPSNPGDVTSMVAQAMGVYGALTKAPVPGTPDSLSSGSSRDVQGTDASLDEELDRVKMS

[9] = molecular target: SW480 colon carcinoma cells lysate proteins (Homo sapiens, UniProt Q14204); conditions: PreyGene DYNC1H1
[10] = molecular target: T5, SW480 colon carcinoma cells lysate proteins (Homo sapiens, UniProt Q96FQ6); conditions: PreyGene S100A16; SW480 cells
T5 sequence (Q96FQ6 1-103): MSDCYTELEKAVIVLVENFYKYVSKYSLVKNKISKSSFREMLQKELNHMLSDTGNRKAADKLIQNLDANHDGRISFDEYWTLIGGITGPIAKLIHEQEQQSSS

Chain of SW480 colon carcinoma cells lysate proteins (Homo sapiens, UniProt P68371) (P68371 whole entry): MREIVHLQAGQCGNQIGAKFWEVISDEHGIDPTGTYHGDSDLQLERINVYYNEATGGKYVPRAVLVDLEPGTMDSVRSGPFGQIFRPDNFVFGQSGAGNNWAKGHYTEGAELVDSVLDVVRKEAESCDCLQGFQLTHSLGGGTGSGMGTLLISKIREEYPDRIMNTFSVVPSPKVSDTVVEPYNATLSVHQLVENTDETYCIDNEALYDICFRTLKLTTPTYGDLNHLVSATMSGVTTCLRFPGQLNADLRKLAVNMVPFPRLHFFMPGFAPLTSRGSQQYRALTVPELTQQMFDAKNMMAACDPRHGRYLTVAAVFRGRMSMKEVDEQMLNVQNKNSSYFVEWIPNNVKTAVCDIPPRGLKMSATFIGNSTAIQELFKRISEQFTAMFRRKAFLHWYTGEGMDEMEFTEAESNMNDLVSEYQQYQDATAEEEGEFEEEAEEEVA
Chain of SW480 colon carcinoma cells lysate proteins (Homo sapiens, UniProt P49327) (P49327 whole entry): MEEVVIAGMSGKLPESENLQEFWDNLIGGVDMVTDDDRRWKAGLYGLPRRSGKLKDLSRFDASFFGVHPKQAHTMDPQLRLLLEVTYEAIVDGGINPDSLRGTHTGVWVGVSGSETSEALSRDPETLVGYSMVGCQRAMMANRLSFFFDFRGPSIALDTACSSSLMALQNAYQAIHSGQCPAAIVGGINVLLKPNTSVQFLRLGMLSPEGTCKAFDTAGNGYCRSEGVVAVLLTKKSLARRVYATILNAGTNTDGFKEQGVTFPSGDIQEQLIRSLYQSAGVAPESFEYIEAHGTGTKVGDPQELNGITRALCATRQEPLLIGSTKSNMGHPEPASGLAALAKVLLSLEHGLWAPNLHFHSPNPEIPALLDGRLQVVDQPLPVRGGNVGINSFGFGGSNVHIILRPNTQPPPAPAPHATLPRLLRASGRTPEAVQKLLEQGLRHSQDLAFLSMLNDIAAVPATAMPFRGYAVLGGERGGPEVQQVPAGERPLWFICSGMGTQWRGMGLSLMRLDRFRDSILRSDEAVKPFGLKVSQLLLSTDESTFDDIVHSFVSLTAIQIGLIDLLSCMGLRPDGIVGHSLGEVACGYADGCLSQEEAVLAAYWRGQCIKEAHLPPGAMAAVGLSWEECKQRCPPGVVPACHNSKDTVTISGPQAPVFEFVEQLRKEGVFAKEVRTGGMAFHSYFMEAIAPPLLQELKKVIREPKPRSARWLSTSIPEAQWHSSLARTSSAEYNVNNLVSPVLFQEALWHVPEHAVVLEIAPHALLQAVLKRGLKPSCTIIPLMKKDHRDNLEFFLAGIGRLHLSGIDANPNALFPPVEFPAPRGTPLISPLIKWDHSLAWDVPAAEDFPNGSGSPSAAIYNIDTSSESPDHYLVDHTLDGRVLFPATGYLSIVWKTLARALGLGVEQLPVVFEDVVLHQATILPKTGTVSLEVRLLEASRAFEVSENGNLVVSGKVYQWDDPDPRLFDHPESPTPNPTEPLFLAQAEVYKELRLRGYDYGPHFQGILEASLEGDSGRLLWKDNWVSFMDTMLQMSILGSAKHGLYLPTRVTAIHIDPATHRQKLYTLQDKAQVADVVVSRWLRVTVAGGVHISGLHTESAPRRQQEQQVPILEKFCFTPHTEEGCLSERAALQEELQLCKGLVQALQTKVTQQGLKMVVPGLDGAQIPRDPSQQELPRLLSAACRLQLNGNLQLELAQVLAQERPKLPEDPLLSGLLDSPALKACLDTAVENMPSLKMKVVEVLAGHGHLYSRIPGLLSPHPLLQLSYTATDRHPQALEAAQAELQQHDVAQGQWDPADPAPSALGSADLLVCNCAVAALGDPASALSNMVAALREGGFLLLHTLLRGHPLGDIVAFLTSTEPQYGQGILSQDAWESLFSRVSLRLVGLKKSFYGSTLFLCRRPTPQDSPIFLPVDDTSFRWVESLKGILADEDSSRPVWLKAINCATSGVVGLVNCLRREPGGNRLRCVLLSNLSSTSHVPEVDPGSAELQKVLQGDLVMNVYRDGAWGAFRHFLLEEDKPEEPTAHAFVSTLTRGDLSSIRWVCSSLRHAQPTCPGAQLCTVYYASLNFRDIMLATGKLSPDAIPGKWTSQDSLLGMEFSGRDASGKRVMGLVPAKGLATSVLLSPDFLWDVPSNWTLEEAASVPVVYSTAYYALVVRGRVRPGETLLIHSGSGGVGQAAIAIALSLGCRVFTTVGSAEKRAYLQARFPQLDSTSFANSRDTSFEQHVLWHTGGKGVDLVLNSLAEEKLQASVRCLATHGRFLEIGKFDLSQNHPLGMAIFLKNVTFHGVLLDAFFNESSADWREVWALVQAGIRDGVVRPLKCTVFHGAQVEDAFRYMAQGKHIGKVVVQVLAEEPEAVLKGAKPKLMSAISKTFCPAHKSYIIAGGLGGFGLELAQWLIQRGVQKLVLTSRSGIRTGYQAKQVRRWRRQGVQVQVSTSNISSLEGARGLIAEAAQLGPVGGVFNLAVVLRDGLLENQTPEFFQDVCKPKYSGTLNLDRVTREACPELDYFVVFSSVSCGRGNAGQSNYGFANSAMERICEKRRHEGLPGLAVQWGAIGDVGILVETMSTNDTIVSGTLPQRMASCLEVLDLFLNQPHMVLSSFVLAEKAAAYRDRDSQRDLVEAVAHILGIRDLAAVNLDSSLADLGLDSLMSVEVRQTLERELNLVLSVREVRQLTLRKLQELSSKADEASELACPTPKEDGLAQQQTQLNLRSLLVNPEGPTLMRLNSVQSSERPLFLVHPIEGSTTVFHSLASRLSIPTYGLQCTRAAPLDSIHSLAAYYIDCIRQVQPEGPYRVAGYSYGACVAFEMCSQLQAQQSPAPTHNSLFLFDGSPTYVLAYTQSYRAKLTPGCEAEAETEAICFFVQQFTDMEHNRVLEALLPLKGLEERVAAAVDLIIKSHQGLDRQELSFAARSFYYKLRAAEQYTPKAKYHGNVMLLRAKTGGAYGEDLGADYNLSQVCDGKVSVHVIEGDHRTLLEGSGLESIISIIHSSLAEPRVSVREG

C[C@H](Oc1cc(-c2cnn(C3CCNCC3)c2)cnc1N)c1c(Cl)ccc(F)c1Cl [(5)-crizotinib]
AvgP [1]: 0
SC.Exp. 1-1 [1]: 8
SC.Exp. 1-2 [1]: 8
SC.Exp. 2-1 [1]: 2
SC.Exp. 2-2 [1]: 4
SC.Exp. Sum [1]: 22
AvgP [2]: 0.394
SC.Exp. 1-1 [2]: 8
SC.Exp. 1-2 [2]: 8
SC.Exp. 2-1 [2]: 0
SC.Exp. 2-2 [2]: 0
Sum (SC.Exp.) [2]: 16
AvgP [3]: 0.3255
SC.Exp. 1-1 [3]: 4
SC.Exp. 1-2 [3]: 4
SC.Exp. 2-1 [3]: 0
SC.Exp. 2-2 [3]: 0
Sum (SC.Exp.) [3]: 8
AvgP [4]: 0.4818
SC.Exp. 1-1 [4]: 6
SC.Exp. 1-2 [4]: 7
SC.Exp. 2-1 [4]: 0
SC.Exp. 2-2 [4]: 0
Sum (SC.Exp.) [4]: 13
AvgP [5]: 0
SC.Exp. 1-1 [5]: 1
SC.Exp. 1-2 [5]: 1
SC.Exp. 2-1 [5]: 0
SC.Exp. 2-2 [5]: 0
SC.Exp. Sum [5]: 2
AvgP [6]: 0.4372
SC.Exp. 1-1 [6]: 5
SC.Exp. 1-2 [6]: 4
SC.Exp. 2-1 [6]: 0
SC.Exp. 2-2 [6]: 0
Sum (SC.Exp.) [6]: 9
AvgP [7]: 0.2291
SC.Exp. 1-1 [7]: 11
SC.Exp. 1-2 [7]: 11
SC.Exp. 2-1 [7]: 0
SC.Exp. 2-2 [7]: 0
Sum (SC.Exp.) [7]: 22
AvgP [8]: 0
SC.Exp. 1-1 [8]: 5
SC.Exp. 1-2 [8]: 4
SC.Exp. 2-1 [8]: 2
SC.Exp. 2-2 [8]: 2
SC.Exp. Sum [8]: 13
AvgP [9]: 0.2458
SC.Exp. 1-1 [9]: 13
SC.Exp. 1-2 [9]: 13
SC.Exp. 2-1 [9]: 2
SC.Exp. 2-2 [9]: 2
Sum (SC.Exp.) [9]: 30
AvgP [10]: 0
SC.Exp. 1-1 [10]: 1
SC.Exp. 1-2 [10]: 0
SC.Exp. 2-1 [10]: 0
SC.Exp. 2-2 [10]: 0
SC.Exp. Sum [10]: 1
